Our source for the EC50 values is patent publication US10138255B2, “Piperazine derivatives as HIV protease inhibitors” (Merck Sharp & Dohme Corp., priority 2014, dated 2018).

For the test, the system named is HIV-1 (H9IIIB strain). Description: Cell-Based HIV Infection Assay Using a Reporter (MT4-GFP cells). The settings on record: Human immunodeficiency virus 1, inflection point (IP) of viral growth inhibition; MT4-GFP cells infected with HIV-1 H9IIIB; 50% normal human serum; mean of at least two independent experiments; read-out: Cell Based IP (50% NHS). As to the method: Cell-Based HIV Infection Assay Using a Reporter (“Cell-Based”):
MT4-GFP cells contain a stably integrated HIV long terminal repeat promoter directing the transcription of green fluorescent protein (GFP). When HIV infects the cell, GFP is produced and the cell becomes green. MT4-GFP cells (250,000 cells/mL) were bulk-infected with HIV-1 (H9IIIB strain) at low multiplicity of infection (MOI) in RPM 1640 media, supplemented with 10% FBS for 24 h. Cells were then washed once in RPMI 1640 plus 10% FBS and resuspended in RPMI plus 50% normal human serum (NHS). Test compounds were serial-diluted in DMSO using an ECHO liquid dispenser. A control well included a combination of three HIV drugs (an inhibitor of HIV protease, integrase strand transfer and a non-nucleoside reverse transcriptase inhibitor; triple drug). The infected MT4-GFP cells were added to a 384-well poly-D-lysine coated black plate with clear bottom in which the diluted test compounds were placed. The cells were seeded in the plate at 8,000 cells per well and the final DMSO concentration was 0.4%. Infected cells were quantified at both 24 and 48 h post incubation using an Acumen eX3 plate reader. Viral reproductive ratio (R0) was determined using the number of infected cells at 48 h divided by the number of infected cells at 24 h. Percent viral growth inhibition was calculated by [1−(R−Rtripledrug)/(RDMSO−Rtripledrug)]*100. Compound potency inflection point (IP) was determined with use of a 4-parameter dose response curve analysis.
Data shown in the table reflects the mean of at least two independent experiments.
For `C[C@@H]1C[C@H](C(c2ccc(F)cc2)[C@H](N)C(=O)Nc2cccc(F)c2CC[C@H]2CN[C@@H]3CCCS(=O)(=O)N2C3)C[C@H](C)O1` (stereo partly drawn) [Example 15, β-[(2R,4r,6S)-2,6-Dimethyltetrahydro-2H-pyran-4-yl]-N-(2-{2-[(6R,9S)-2,2-dioxido-2-thia-1,7-diazabicyclo[4.3.1]dec-9-yl]ethyl}-3-fluorophenyl)-4-fluoro-L-phenylalaninamide], the EC50 came out at 8.8 nM.
Consider `COC(=O)N[C@H](C(=O)Nc1cccc(F)c1CC[C@H]1CN[C@@H]2CCCS(=O)(=O)N1C2)[C@@H](c1ccc(Cl)c(F)c1)C1C[C@@H](C)O[C@@H](C)C1` (stereo partly drawn) [Example 16, Methyl {(1S,2R)-2-(4-chloro-3-fluorophenyl)-2-[(2R,6S)-2,6-dimethyltetrahydro-2H-pyran-4-yl]-1-[(2-{2-[(6R,9S)-2,2-dioxido-2-thia-1,7-diazabicyclo[4.3.1]dec-9-yl]ethyl}-3-fluorophenyl)carbamoyl]ethyl}carbamate], for which the EC50 worked out at 4.9 nM.
With `CC(C)Oc1cc([C@H](c2ccc(Cl)cc2)[C@H](N)C(=O)Nc2cccc(F)c2CCC2CNC3CCCS(=O)(=O)N2C3)ccn1` (stereo partly drawn) [Example 17, (βS)-4-Chloro-N-{2-[2-(2,2-dioxido-2-thia-1,7-diazabicyclo[4.3.1]dec-9-yl)ethyl]-3-fluorophenyl}-β-[2-(1-methylethoxy)pyridin-4-yl]-L-phenylalaninamide], the EC50 came out at 8.9 nM.
`COC(=O)N[C@H](C(=O)Nc1cccc(F)c1CCC1CNC2CCCS(=O)(=O)N1C2)[C@@H](c1ccc(Cl)cc1)c1ccnc(C(F)(F)F)c1` (stereo partly drawn) [Example 18, Methyl {(1S,2S)-2-(4-chlorophenyl)-1-({2-[2-(2,2-dioxido-2-thia-1,7-diazabicyclo[4.3.1]dec-9-yl)ethyl]-3-fluorophenyl}carbamoyl)-2-[2-(trifluoromethyl)pyridin-4-yl]ethyl}carbamate]: the EC50 came to 8.7 nM.
For the compound `COC(=O)N[C@H](C(=O)Nc1cccc(F)c1CCC1CNC2CCCS(=O)(=O)N1C2)[C@H](c1cncc(C(F)(F)F)c1)c1ccc(Cl)c(F)c1` (stereo partly drawn) [Example 19, Methyl {(1S,2S)-2-(4-chloro-3-fluorophenyl)-1-({2-[2-(2,2-dioxido-2-thia-1,7-diazabicyclo[4.3.1]dec-9-yl)ethyl]-3-fluorophenyl}carbamoyl)-2-[5-(trifluoromethyl)pyridin-3-yl]ethyl}carbamate], the EC50 amounted to 5.2 nM.
As for `CC(F)(F)c1cncc([C@H](c2ccc(Cl)cc2)[C@H](N)C(=O)Nc2cccc(F)c2CCC2CNC3CCCS(=O)(=O)N2C3)c1` (stereo partly drawn) [Example 20, (βS)-4-Chloro-β-[5-(1,1-difluoroethyl)pyridin-3-yl]-N-{2-[2-(2,2-dioxido-2-thia-1,7-diazabicyclo[4.3.1]dec-9-yl)ethyl]-3-fluorophenyl}-L-phenylalaninamide], the EC50 came out at 11 nM.
Take `COC(=O)N[C@H](C(=O)Nc1cccc(F)c1CCC1CNC2CCCS(=O)(=O)N1C2)[C@@H](c1ccc(Cl)cc1)c1ccc(C(F)(F)F)nc1` (stereo partly drawn) [Example 21, Methyl {(1S,2S)-2-(4-chlorophenyl)-1-({2-[2-(2,2-dioxido-2-thia-1,7-diazabicyclo[4.3.1]dec-9-yl)ethyl]-3-fluorophenyl}carbamoyl)-2-[6-(trifluoromethyl)pyridin-3-yl]ethyl}carbamate]: the EC50 turned out to be 5 nM.
As to `COC(=O)N[C@H](C(=O)Nc1cccc(F)c1CC[C@H]1CN[C@@H]2CCCS(=O)(=O)N1C2)[C@@H](c1ccc(F)cc1)c1cnc(C(F)(F)F)nc1` [Example 22, Methyl [(1S)-2-[(2-{2-[(6R,9S)-2,2-dioxido-2-thia-1,7-diazabicyclo[4.3.1]dec-9-yl]ethyl}-3-fluorophenyl)amino]-1-{(S)-(4-fluorophenyl)[2-(trifluoromethyl)pyrimidin-5-yl]methyl}-2-oxoethyl]carbamate], the EC50 is 15 nM.
Consider `CC(C)Oc1ncc([C@H](c2ccc(F)cc2)[C@H](N)C(=O)Nc2cccc(F)c2CC[C@H]2CN[C@@H]3CCCS(=O)(=O)N2C3)cn1` [Example 23, (βS)—N-(2-{2-[(6R,9S)-2,2-Dioxido-2-thia-1,7-diazabicyclo[4.3.1]dec-9-yl]ethyl}-3-fluorophenyl)-4-fluoro-β-[2-(1-methylethoxy)pyrimidin-5-yf]-L-phenylalaninamide], for which the EC50 was found to be 9.3 nM.
As for `N[C@H](C(=O)N[C@H]1CCCC[C@@H]1CC[C@H]1CN[C@@H]2CCCS(=O)(=O)N1C2)[C@@H](c1ccc(Cl)cc1)C1CCOCC1` [Example 24, (βR)-4-Chloro-N-[(1S,2R)-2-{2-[(6R,9S)-2,2-dioxido-2-thia-1,7-diazabicyclo[4.3.1]dec-9-yl]ethyl}cyclohexyl]-β-(tetrahydro-2H-pyran-4-yl)-L-phenylalaninamide], the EC50 worked out at 13 nM.
As for `COC(=O)N[C@H](C(=O)N[C@H]1CCCC[C@@H]1CC[C@H]1CN[C@@H]2CCCS(=O)(=O)N1C2)[C@@H](c1ccc(Cl)cc1)C1CCOCC1` [Example 25, Methyl [(1S,2R)-2-(4-chlorophenyl)-1-{[(1S,2R)-2-{2-[(6R,9S)-2,2-dioxido-2-thia-1,7-diazabicyclo[4.3.1]dec-9-yl]ethyl}cyclohexyl]carbamoyl}-2-(tetrahydro-2H-pyran-4-yl)ethyl]carbamate], the EC50 was found to be 41 nM.
In the case of `COC(=O)N[C@H](C(=O)Nc1ccc(F)c(F)c1CC[C@H]1CN[C@@H]2CCCS(=O)(=O)N1C2)[C@@H](c1ccc(F)cc1)[C@H]1CC[C@H](OC)CC1` [Example 26, Methyl ((2S,3R)-1-((2-(2-((6R,9S)-2,2-dioxido-2-thia-1,7-diazabicyclo[4.3.1]decan-9-yl)ethyl)-3,4-difluorophenyl)amino)-3-(4-fluorophenyl)-3-((1r,4R)-4-methoxycyclohexyl)-1-oxopropan-2-yl)carbamate], the EC50 stood at 11 nM.
As to `CO[C@H]1CC[C@H]([C@H](c2ccc(F)cc2)[C@H](N)C(=O)Nc2cncc(F)c2CC[C@H]2CN[C@@H]3CCCS(=O)(=O)N2C3)CC1` [Example 27, (2S,3R)-2-Amino-N-(4-(2-((6R,9S)-2,2-dioxido-2-thia-1,7-diazabicyclo[4.3.1]decan-9-yl)ethyl)-5-fluoropyridin-3-yl)-3-(4-fluorophenyl)-3-((1r,4R)-4-methoxycyclohexyl)propanamide], the EC50 came out at 7.5 nM.
As for `COC(=O)N[C@H](C(=O)Nc1ccc(F)c(F)c1CC[C@H]1CN[C@@H]2CCCS(=O)(=O)N1C2)[C@@H](c1ccc(F)cc1)C1CCOC(C)(C)C1` (stereo partly drawn) [Example 28, Methyl [(1S,2R)-2-(2,2-dimethyltetrahydro-2H-pyran-4-yl)-1-[(2-{2-[(6R,9S)-2,2-dioxido-2-thia-1,7-diazabicyclo[4.3.1]dec-9-yl]ethyl}-3,4-difluorophenyl)carbamoyl]-2-(4-fluorophenyl)ethyl]carbamate], the EC50 turned out to be 13 nM.
Under `COC(=O)N[C@H](C(=O)N[C@H]1CCC[C@@H]1CC[C@H]1CN[C@@H]2CCCS(=O)(=O)N1C2)[C@@H](c1ccc(Cl)cc1)C1CCOC(C)(C)C1` (stereo partly drawn) [Example 29, Methyl [(1S,2R)-2-(4-chlorophenyl)-2-(2,2-dimethyltetrahydro-2H-pyran-4-yl)-1-{[(1S,2R)-2-{2-[(6R,9S)-2,2-dioxido-2-thia-1,7-diazabicyclo[4.3.1]dec-9-yl]ethyl}cyclopentyl]carbamoyl}ethyl]carbamate] stands 23 nM.
Regarding `COC(=O)N[C@H](C(=O)Nc1cc(F)ccc1CC[C@H]1CN[C@@H]2CCCS(=O)(=O)N1C2)[C@@H](c1ccc(F)cc1)C1C[C@@H](C)O[C@@H](C)C1` (stereo partly drawn) [Example 30, Methyl [(1S,2R)-2-[(2R,6S)-2,6-dimethyltetrahydro-2H-pyran-4-yl]-1-[(2-{2-[(6R,9S)-2,2-dioxido-2-thia-1,7-diazabicyclo[4.3.1]dec-9-yl]ethyl}-5-fluorophenyl)carbamoyl]-2-(4-fluorophenyl)ethyl]carbamate], the EC50 came out at 10 nM.
For `C[C@@H]1C[C@H]([C@H](c2ccc(Cl)cc2)[C@H](N)C(=O)Nc2cncc(F)c2CC[C@H]2CN[C@@H]3CCCS(=O)(=O)N2C3)C[C@H](C)O1` [Example 31, (2S,3R)-2-Amino-3-(4-chlorophenyl)-3-((2R,4r,6S)-2,6-dimethyltetrahydro-2H-pyran-4-yl)-N-(4-(2-((6R,9S)-2,2-dioxido-2-thia-1,7-diazabicyclo[4.3.1]decan-9-yl)ethyl)-5-fluoropyridin-3-yl)propanamide], the EC50 worked out at 6.3 nM.
Under `COC(=O)N[C@H](C(=O)Nc1c(F)ccc(F)c1CC[C@H]1CN[C@@H]2CCCS(=O)(=O)N1C2)[C@@H](c1ccc(Cl)cc1)C1CCOCC1` [Example 32, Methyl [(1S,2R)-2-(4-chlorophenyl)-1-[(2-{2-[(6R,9S)-2,2-dioxido-2-thia-1,7-diazabicyclo[4.3.1]dec-9-yl]ethyl}-3,6-difluorophenyl)carbamoyl]-2-(tetrahydro-2H-pyran-4-yl)ethyl]carbamate] stands 20 nM; under `N[C@H](C(=O)Nc1cccc(F)c1CCC1CNC2CCCS(=O)(=O)N1C2)[C@@H](c1ccc(F)cc1)c1ccc(C(F)(F)F)cc1` (stereo partly drawn) [Example 33, (βR)—N-{2-[2-(2,2-Dioxido-2-thia-1,7-diazabicyclo[4.3.1]dec-9-yl)ethyl]-3-fluorophenyl}-β-(4-fluorophenyl)-4-(trifluoromethyl)-L-phenylalaninamide], 8.5 nM.
